Test results from patent US8288379B2, “Thia-triaza-cyclopentazulenes” (Boehringer Ingelheim International GmbH, priority 2009, dated 2012).

Legend:
[1] = biological target: T1, FRAP1 (mTOR) kinase (Homo sapiens, UniProt P42345); experiment: Inhibition of mTOR-induced p-4E-BP1 phosphorylation (TR-FRET mTOR Activity Kit; Invitrogen); format: biochemical; conditions: 400 nM GFP-4E-BP1 substrate, ~150 ng/mL mTOR, one hour at room temperature
T1 construct: purchased Invitrogen PV4753
From the text: Inhibition of mTOR-Induced p-4E-BP1 Phosphorylation (TR-FRET mTOR Activity Kit; Invitrogen)
• GFP-4E-BP1 substrate; Invitrogen order no. PV4759 • Lanthascreen Tb-anti-p4E-BP1 (pThr46) Antibody Kit; Invitrogen order no. PV4758 • FRAP1 (mTOR) kinase; Invitrogen order no. […] Preparation of Reagents: Note: Thaw and keep mTOR, the substrate, ATP, and the antibody on ice prior to making working dilutions. Working dilutions of these components can be kept at room temperature for short periods of time the day of use. 1. Add 2 ml of 5× Assay Buffer to 8 ml water to prepare 10 ml of 1× Assay Buffer. Note: The concentration of 1× Assay Buffer is 50 mM HEPES pH 7.5, 0.01% Polysorbate 20, 1 mM EGTA, and 10 mM MnCl2. 2. Prepare Antibody/EDTA Solution by first adding 2.75 n1 of Tb-anti p4E-BP1 Antibody to 2397 n1 of LanthaScreen™ TR-FRET Dilution Buffer. Then, add 100 n1 of 0.5 M EDTA. 3. Prepare 4× Substrate/Enzyme Solution by first adding 72 n1 of GFP-4E-BP1 (22 nM) to 926 n1 of 1× Assay Buffer. Then, add 1.6 n1 of mTOR (0.45 mg/mL). 4. Prepare ATP Solution by adding 3.2 n1 of 10 mM ATP to 1997 n1 of 1× Assay Buffer. Serial Dilution of Inhibitors (16 Point Curve): Note: It is recommended that inhibitors be serially diluted in DMSO, then diluted to a 4× working concentration with 1× Assay Buffer. The below procedure describes dilution of compounds in a 96-well format prior to transfer to a 384-well format for kinase assays. This procedure calls for dilution of the compounds in 2 adjacent columns of a 96-well plate, which upon transfer to a single column of a 384-well plate with an 8-channel pipette will align the samples in order of concentration. 1. Dispense 40 n1 of DMSO to two adjacent columns of a 96 well plate per compound (e.g. columns 1 and 2). 2. Add 10 n1 of inhibitor stock (10 mM) to the first well of the first column (A1) and mix. 3. Remove 10 n1 from A1 and transfer to the adjacent well in the next column (B1) and mix. 4. Remove 10 n1 from B1 and transfer to the next well in the first column (B2) and mix. 5. Repeat this dilution pattern through well H1 and leave the last well (H2) as DMSO only. 6. Remove 4 n1 of diluted compounds and add to 96 n1 of 1× Assay Buffer in a 96-well plate making 4× compound dilutions. Kinase Reaction: 1. Add 2.5 μl of 4× compound dilutions from the first column of the 96-well plate to every other well of column 1 of a 384-well plate with an 8-channel pipette. Repeat for columns 2 and 3. 2. Add 2.5 n1 of 4× compound dilutions from the second column of the 96-well plate to the empty wells of column 1 of the 384-well plate with an 8-channel pipette. Repeat for columns 2 and 3. Note: This procedure aligns the compound dilutions in order of concentration. 3. Add 2.5 n1 of 4× Enzyme/Substrate Solution to all columns 1-6. 4. Preincubate for 30 min. at RT (shaker). 5. Add 5 n1 of ATP Solution to all wells to start reactions. 6. Shake the assay plate on a plate shaker for 30 seconds. 7. Incubate the assay plate for one hour at room temperature (20-25° C.). Stop Step and Fluorescence Detection: 1. Add 10 n1 of Antibody/EDTA Solution to each well in columns 1-9. 2. Shake the assay plate on a plate shaker for 30 seconds. 3. Incubate the assay plate for one hour at room temperature (20-25° C.). 4. Measure the GFP (FRET) and terbium (reference) emission signals on a fluorescence plate reader (e.g. Perkin Elmer Envision). Data Analysis: 1. Calculate the emission ratio for each sample by dividing the GFP (FRET) signal by the terbium (reference) signal. 2. Plot the concentration of each compound versus the emission ratio. Determine the concentration of compound required to reach 50% of the maximum signal (IC50). Determination of IC50 values can be obtained by curve fitting (sigmoidal dose response, variable slope) using Prism software from GraphPad). Inhibition of Proliferation: CyQuant PC-3 Description: […]

[2] = test system: PC-3 cells; experiment: Inhibition of proliferation: CyQuant PC-3; format: cell-based; conditions: 72 h; PC-3 human prostate carcinoma cells, incubated with compounds for 3 days, CyQuant NF DNA dye
Description: • GFP-4E-BP1 substrate; Invitrogen order no. PV4759 • Lanthascreen Tb-anti-p4E-BP1 (pThr46) Antibody Kit; Invitrogen order no. PV4758 • FRAP1 (mTOR) kinase; Invitrogen order no. […] Preparation of Reagents: Note: Thaw and keep mTOR, the substrate, ATP, and the antibody on ice prior to making working dilutions. Working dilutions of these components can be kept at room temperature for short periods of time the day of use. 1. Add 2 ml of 5× Assay Buffer to 8 ml water to prepare 10 ml of 1× Assay Buffer. Note: The concentration of 1× Assay Buffer is 50 mM HEPES pH 7.5, 0.01% Polysorbate 20, 1 mM EGTA, and 10 mM MnCl2. 2. Prepare Antibody/EDTA Solution by first adding 2.75 n1 of Tb-anti p4E-BP1 Antibody to 2397 n1 of LanthaScreen™ TR-FRET Dilution Buffer. Then, add 100 n1 of 0.5 M EDTA. 3. Prepare 4× Substrate/Enzyme Solution by first adding 72 n1 of GFP-4E-BP1 (22 nM) to 926 n1 of 1× Assay Buffer. Then, add 1.6 n1 of mTOR (0.45 mg/mL). 4. Prepare ATP Solution by adding 3.2 n1 of 10 mM ATP to 1997 n1 of 1× Assay Buffer. Serial Dilution of Inhibitors (16 Point Curve): Note: It is recommended that inhibitors be serially diluted in DMSO, then diluted to a 4× working concentration with 1× Assay Buffer. The below procedure describes dilution of compounds in a 96-well format prior to transfer to a 384-well format for kinase assays. This procedure calls for dilution of the compounds in 2 adjacent columns of a 96-well plate, which upon transfer to a single column of a 384-well plate with an 8-channel pipette will align the samples in order of concentration. 1. Dispense 40 n1 of DMSO to two adjacent columns of a 96 well plate per compound (e.g. columns 1 and 2). 2. Add 10 n1 of inhibitor stock (10 mM) to the first well of the first column (A1) and mix. 3. Remove 10 n1 from A1 and transfer to the adjacent well in the next column (B1) and mix. 4. Remove 10 n1 from B1 and transfer to the next well in the first column (B2) and mix. 5. Repeat this dilution pattern through well H1 and leave the last well (H2) as DMSO only. 6. Remove 4 n1 of diluted compounds and add to 96 n1 of 1× Assay Buffer in a 96-well plate making 4× compound dilutions. Kinase Reaction: 1. Add 2.5 μl of 4× compound dilutions from the first column of the 96-well plate to every other well of column 1 of a 384-well plate with an 8-channel pipette. Repeat for columns 2 and 3. 2. Add 2.5 n1 of 4× compound dilutions from the second column of the 96-well plate to the empty wells of column 1 of the 384-well plate with an 8-channel pipette. Repeat for columns 2 and 3. Note: This procedure aligns the compound dilutions in order of concentration. 3. Add 2.5 n1 of 4× Enzyme/Substrate Solution to all columns 1-6. 4. Preincubate for 30 min. at RT (shaker). 5. Add 5 n1 of ATP Solution to all wells to start reactions. 6. Shake the assay plate on a plate shaker for 30 seconds. 7. Incubate the assay plate for one hour at room temperature (20-25° C.). Stop Step and Fluorescence Detection: 1. Add 10 n1 of Antibody/EDTA Solution to each well in columns 1-9. 2. Shake the assay plate on a plate shaker for 30 seconds. 3. Incubate the assay plate for one hour at room temperature (20-25° C.). 4. Measure the GFP (FRET) and terbium (reference) emission signals on a fluorescence plate reader (e.g. Perkin Elmer Envision). Data Analysis: 1. Calculate the emission ratio for each sample by dividing the GFP (FRET) signal by the terbium (reference) signal. 2. Plot the concentration of each compound versus the emission ratio. Determine the concentration of compound required to reach 50% of the maximum signal (IC50). Determination of IC50 values can be obtained by curve fitting (sigmoidal dose response, variable slope) using Prism software from GraphPad). Inhibition of Proliferation: CyQuant PC-3 Description:
The CyQuant NF assay is based on measurement of cellular DNA content via fluorescent dye binding. Because cellular DNA content is highly regulated, it is closely proportional to cell number. […]

T1 sequence (P42345 1360-2549 limits assumed): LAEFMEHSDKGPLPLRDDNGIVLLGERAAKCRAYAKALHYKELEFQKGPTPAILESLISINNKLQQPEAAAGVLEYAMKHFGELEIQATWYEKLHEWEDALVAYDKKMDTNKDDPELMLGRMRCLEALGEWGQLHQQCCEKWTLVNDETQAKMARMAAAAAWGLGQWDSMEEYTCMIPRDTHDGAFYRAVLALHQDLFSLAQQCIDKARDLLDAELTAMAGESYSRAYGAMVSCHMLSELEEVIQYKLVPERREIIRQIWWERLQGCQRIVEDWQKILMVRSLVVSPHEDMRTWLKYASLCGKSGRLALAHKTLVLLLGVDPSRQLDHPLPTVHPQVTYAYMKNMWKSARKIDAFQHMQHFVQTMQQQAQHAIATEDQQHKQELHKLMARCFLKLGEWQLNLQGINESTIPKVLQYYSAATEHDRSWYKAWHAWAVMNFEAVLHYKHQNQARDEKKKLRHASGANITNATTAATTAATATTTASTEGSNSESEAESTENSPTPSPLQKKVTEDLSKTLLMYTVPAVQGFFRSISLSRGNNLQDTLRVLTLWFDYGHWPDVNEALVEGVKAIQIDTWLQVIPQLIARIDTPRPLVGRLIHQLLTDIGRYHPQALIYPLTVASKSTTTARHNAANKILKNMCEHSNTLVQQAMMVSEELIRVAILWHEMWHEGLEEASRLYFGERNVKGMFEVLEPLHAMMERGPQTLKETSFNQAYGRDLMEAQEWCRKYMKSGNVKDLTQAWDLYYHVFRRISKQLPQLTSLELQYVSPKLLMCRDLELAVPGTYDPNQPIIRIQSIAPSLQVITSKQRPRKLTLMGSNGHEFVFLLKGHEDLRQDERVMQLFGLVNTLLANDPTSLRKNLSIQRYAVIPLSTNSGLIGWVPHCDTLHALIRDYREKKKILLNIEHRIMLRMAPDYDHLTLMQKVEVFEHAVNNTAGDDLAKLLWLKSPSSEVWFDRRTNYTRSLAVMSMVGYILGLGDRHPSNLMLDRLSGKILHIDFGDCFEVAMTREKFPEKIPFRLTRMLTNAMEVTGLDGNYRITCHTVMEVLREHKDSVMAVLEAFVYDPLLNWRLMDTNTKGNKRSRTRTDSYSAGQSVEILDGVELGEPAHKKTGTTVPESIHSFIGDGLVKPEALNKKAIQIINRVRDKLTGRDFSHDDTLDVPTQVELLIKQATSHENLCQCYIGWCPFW

Structure (SMILES) | IC50 [1] [µM] | EC50 [2] [µM]
CCNc1ccc(-c2nn(-c3ccccc3F)c3c2CCCc2nc(NC(C)=O)sc2-3)cn1 [Example B-76, N-[3-(6-Ethylamino-pyridin-3-yl)-1-(2-fluoro-phenyl)-1,4,5,6-tetrahydro-9-thia-1,2,7-triaza-cyclopenta[e]azulen-8-yl]-acetamide] | 0.031 | 0.079
CC(=O)Nc1nc2c(s1)-c1c(c(-c3ccc(N)nc3)nn1-c1ccccc1Br)CCC2 [Example B-63, N-[3-(6-Amino-pyridin-3-yl)-1-(2-bromo-phenyl)-1,4,5,6-tetrahydro-9-thia-1,2,7-triaza-cyclopenta[e]azulen-8-yl]-acetamide] | 0.027 | 0.143
CCc1ccccc1-n1nc(-c2c[nH]cn2)c2c1-c1sc(NC(C)=O)nc1CCC2 [Example B-118, N-[1-(2-Ethyl-phenyl)-3-(1H-imidazol-4-yl)-1,4,5,6-tetrahydro-9-thia-1,2,7-triaza-cyclopenta[e]azulen-8-yl]-acetamide] | 0.017 | 0.055
CC(=O)Nc1nc2c(s1)-c1c(c(-c3ccc(C)nc3)nn1-c1ccccc1C)CCC2 [Example B-11, N-[3-(6-Methyl-pyridin-3-yl)-1-o-tolyl-1,4,5,6-tetrahydro-9-thia-1,2,7-triaza-cyclopent[e]azulen-8-yl]-acetamide] | 0.805 | 0.476
C=CCn1nc(-c2ccc(NCC)nc2)c2c1-c1sc(NC(C)=O)nc1CCC2 [Example B-129] | 0.093 | 0.265
CCNc1ccc(-c2nn(-c3ccccc3C)c3c2CCCc2nc(NC(=O)CCc4nccn4C)sc2-3)cn1 [Example B-72] | 0.084 | 0.298
CCNc1ccc(-c2nn(-c3ccccc3OC)c3c2CCCc2nc(NC(C)=O)sc2-3)cn1 [Example B-78] | 0.136 | 0.249
CNc1ccc(-c2nn(-c3ccccc3C)c3c2CCCc2nc(NC(=O)CCOC)sc2-3)cn1 [Example B-106, 3-Methoxy-N-[3-(6-methylamino-pyridin-3-yl)-1-o-tolyl-1,4,5,6-tetrahydro-9-thia-1,2,7-triaza-cyclopenta[e]azulen-8-yl]-propionamide] | 0.069 | 0.178
CCNc1ccc(-c2nn(-c3ccccc3Cl)c3c2CCCc2nc(NC(C)=O)sc2-3)cn1 [Example B-75] | 0.049 | 0.113
CCNc1ccc(-c2nn(-c3cccc(OC)c3)c3c2CCCc2nc(NC(C)=O)sc2-3)cn1 [Example B-128] | 0.108 | 0.119
CNc1ccc(-c2nn(-c3ccncc3C)c3c2CCCc2nc(NC(C)=O)sc2-3)cn1 [Example B-85, N-[3-(6-Methylamino-pyridin-3-yl)-1-(3-methyl-pyridin-4-yl)-1,4,5,6-tetrahydro-9-thia-1,2,7-triaza-cyclopenta[e]azulen-8-yl]-acetamide] | 0.024 | 0.076
CNc1ccc(-c2nn(-c3ccccc3C)c3c2CCCc2nc(NC(=O)N(C)C)sc2-3)cn1 [Example B-46] | 1.2 | 0.447
CNC(=O)Nc1nc2c(s1)-c1c(c(-c3ccc(N)nc3)nn1-c1ccccc1C)CCC2 [Example B-148, 1-[3-(6-Amino-pyridin-3-yl)-1-o-tolyl-1,4,5,6-tetrahydro-9-thia-1,2,7-triaza-cyclopenta[e]azulen-8-yl]-3-methyl-urea] | 0.015 | 0.104
CC(=O)Nc1nc2c(s1)-c1c(c(-c3ccc(C)nc3)nn1C1CCN(C3CC3)CC1)CCC2 [Example B-12, N-[1-(1-Cyclopropyl-piperidin-4-yl)-3-(6-methyl-pyridin-3-yl)-1,4,5,6-tetrahydro-9-thia-1,2,7-triaza-cyclopent[e]azulen-8-yl]acetamide] | 0.031 | 0.127
CCCn1nc(-c2ccc(N)nc2)c2c1-c1sc(NC(C)=O)nc1CCC2 [Example B-131, N-[3-(6-Amino-pyridin-3-yl)-1-propyl-1,4,5,6-tetrahydro-9-thia-1,2,7-triaza-cyclopenta[e]azulen-8-yl]-acetamide] | 0.017 | 0.057
